From patent US12729377B2, “RNAi agents and compositions for inhibiting expression of angiopoietin-like 3 (ANGPTL3), and methods of use” (Arrowhead Pharmaceuticals, Inc., priority 2017, dated 2026)
In the oligonucleotide strings, read from the 5' end, every base follows the letter of its sugar. An asterisk marks phosphorothioate; unmarked linkages are phosphodiester. Other units and linkages are bracketed, terminal groups are in braces. A string of capitals states the bases alone. {NAG37} = tridentate N-acetyl-galactosamine targeting ligand, structure (NAG37)s; [invAb] = inverted abasic unit; m = 2'-O-methyl; f = 2'-fluoro

Assays:
Format in all cases: in vivo, C57bl/6 mice
[1] = tested on: ANGPTL3 gene; experiment: Example 6: serum total cholesterol in mice
Method: To assess the in vivo activity of additional ANGPTL3 RNAi agents that are designed to target position 304 on the ANGPTL3 gene, six- to eight-week-old female C57bl/6 mice were used. Pre-dose serum samples were taken at day −1 after a four hour fast. At day 1, each mouse was given a single subcutaneous administration of 200 μl containing 0.5 mg/kg (mpk) of an ANGPTL3 RNAi agent in D5W (dextrose in 5% water), or control (D5W) with no RNAi agent, according to the dosing groups recited in Table 25.
(§1) Each of the RNAi agents included a modified sequence and an N-acetyl-galactosamine-containing targeting ligand conjugated to the 5′ terminal end of the sense strand. (See Tables 3, 4, and 5 for modified sequences and targeting ligand structures). The injections were performed between the skin and muscle (i.e. subcutaneous injections) into the loose skin over the neck and shoulder area. Three (3) mice in each group were tested (n=3). Serum was collected on days 8, 15, 22, 30, and on day 43 for certain groups (i.e., Groups 1, 2, 5, and 10 only). Mice were fasted for four hours prior to each collection. ANGPTL3 protein levels in serum were measured by ELISA assay (R&D Systems), according to the manufacturer's recommendations. Triglycerides, total cholesterol, high-density lipoprotein (HDL), and low-density lipoprotein (LDL) in serum were measured on a Cobas® Integra 400 (Roche Diagnostics), according to the manufacturer's recommendations.
(§2) The ANGPTL3 protein levels, triglyceride levels, total cholesterol levels, HDL levels, and LDL levels for each animal were normalized. For normalization, the level of ANGPTL3 protein, triglyceride, HDL, and total cholesterol, respectively, for each animal at a time point, was divided by the pre-treatment level of expression in that animal (in this case at day −1) to determine the ratio of expression “normalized to pre-treatment.” Expression at a specific time point was then normalized to the D5W control group by dividing the “normalized to pre-treatment” ratio for an individual animal by the mean “normalized to pretreatment” ratio of all mice in the D5W control group.

[2] = tested on: ANGPTL3 gene; experiment: Example 11: dose response, serum total cholesterol in mice
Method: (§3) To assess the dose response of ANGPTL3 RNAi agent AD05488, six- to eight-week-old female C57bl/6 mice were used. Pre-dose serum samples were taken at day −1 after a four hour fast. At day 1, each mouse was given a single subcutaneous administration of 200 μl containing the respective mg/kg dose of an ANGPTL3 RNAi agent in D5W (dextrose in 5% water), or control (D5W) with no RNAi agent, according to the dosing groups recited in Table 53:
as §1, with “The” for “Each of the”, “agent tested (AD05488)” for “agents”, “Four (4)” for “Three (3)”, “(n=4).” for “(n=3).”, “22,” for “22, 30,”, “29.” for “on day 43 for certain groups (i.e., Groups 1, 2, 5, and 10 only).”
as §2

[3] = tested on: ANGPTL3 gene; experiment: Example 11: dose response, serum triglycerides in mice
Method: as §3
as §1, with “The” for “Each of the”, “agent tested (AD05488)” for “agents”, “Four (4)” for “Three (3)”, “(n=4).” for “(n=3).”, “22,” for “22, 30,”, “29.” for “on day 43 for certain groups (i.e., Groups 1, 2, 5, and 10 only).”
as §2

[4] = tested on: ANGPTL3 gene; experiment: Example 4: serum LDL in mice
[5] = Day 22, 0.5 mg/kg single SC injection on day 1, n=3
[6] = Day 43, 0.5 mg/kg single SC injection on day 1, n=3
[7] = 0.05 mg/kg single sc day 1, Day 8
[8] = 0.05 mg/kg single sc day 1, Day 15
[9] = 0.05 mg/kg single sc day 1, Day 22
[10] = 0.05 mg/kg single sc day 1, Day 29
[11] = 0.1 mg/kg single sc day 1, Day 8
[12] = 0.1 mg/kg single sc day 1, Day 15
[13] = 0.1 mg/kg single sc day 1, Day 22
[14] = 0.1 mg/kg single sc day 1, Day 29
[15] = 0.5 mg/kg single sc day 1, Day 8
[16] = 0.5 mg/kg single sc day 1, Day 15
[17] = 0.5 mg/kg single sc day 1, Day 22
[18] = 0.5 mg/kg single sc day 1, Day 29
[19] = 1.0 mg/kg single sc day 1, Day 8
[20] = 1.0 mg/kg single sc day 1, Day 15
[21] = 1.0 mg/kg single sc day 1, Day 22
[22] = 1.0 mg/kg single sc day 1, Day 29
[23] = 2.5 mg/kg single sc day 1, Day 8
[24] = 2.5 mg/kg single sc day 1, Day 15
[25] = 2.5 mg/kg single sc day 1, Day 22
[26] = 2.5 mg/kg single sc day 1, Day 29
[27] = 5.0 mg/kg single sc day 1, Day 8
[28] = 5.0 mg/kg single sc day 1, Day 15
[29] = 5.0 mg/kg single sc day 1, Day 22
[30] = 5.0 mg/kg single sc day 1, Day 29

“AD05488: RNAi agent duplex: antisense AM07235-AS, sense AM07234-SS (antisense mU*fA*mC*fUmGfAmUfCmAfAmAfUmAfUmGfUmUfGmAfG*mC; sense {NAG37}*[invAb]*mGmCmUmCmAmAmCmAfUfAfUmUmUmGmAmUmCmAmGmUmA*[invAb])” was tested, and the “Avg Chol (total cholesterol), normalized to pre-treatment and control” value (“Avg Chol (total cholesterol), normalized” below) ([1]; Day 8, 0.5 mg/kg single SC injection on day 1, n=3) was 0.782, the “Avg Chol (total cholesterol), normalized” value ([1]; Day 15, 0.5 mg/kg single SC injection on day 1, n=3) was 0.768 and the “Avg Chol (total cholesterol), normalized” value [1, 5] was 0.801. The “Avg Chol (total cholesterol), normalized” value ([1]; Day 30, 0.5 mg/kg single SC injection on day 1, n=3) was 0.961, the “Avg Chol (total cholesterol), normalized” value [1, 6] was 1.037 and the “Avg Total Chol Normalized to Pre-Treatment and Control” value (from here on “Avg Total Chol Normalized”) [2, 7] was 0.856. For the same substance, the “Avg Total Chol Normalized” value [2, 8] was 1.090, the “Avg Total Chol Normalized” value [2, 9] was 0.946 and the “Avg Total Chol Normalized” value [2, 10] was 0.915. The “Avg Total Chol Normalized” value [2, 11] was 0.820, the “Avg Total Chol Normalized” value [2, 12] was 0.974 and the “Avg Total Chol Normalized” value [2, 13] was 0.785. The “Avg Total Chol Normalized” value [2, 14] was 0.945, the “Avg Total Chol Normalized” value [2, 15] was 0.740 and the “Avg Total Chol Normalized” value [2, 16] was 0.918. For the same substance, the “Avg Total Chol Normalized” value [2, 17] was 0.897, the “Avg Total Chol Normalized” value [2, 18] was 0.883 and the “Avg Total Chol Normalized” value [2, 19] was 0.610. The “Avg Total Chol Normalized” value [2, 20] was 0.816, the “Avg Total Chol Normalized” value [2, 21] was 0.857 and the “Avg Total Chol Normalized” value [2, 22] was 0.920. The “Avg Total Chol Normalized” value [2, 23] was 0.647, the “Avg Total Chol Normalized” value [2, 24] was 0.832 and the “Avg Total Chol Normalized” value [2, 25] was 0.772. For the same substance, the “Avg Total Chol Normalized” value [2, 26] was 0.694, the “Avg Total Chol Normalized” value [2, 27] was 0.583 and the “Avg Total Chol Normalized” value [2, 28] was 0.787. For the same substance, the “Avg Total Chol Normalized” value [2, 29] was 0.790, the “Avg Total Chol Normalized” value [2, 30] was 0.783 and the “Avg TG (Triglycerides) Normalized to Pre-Treatment and Control” value (from here on “Avg TG (Triglycerides) Normalized”) [3, 7] was 1.296. For the same substance, the “Avg TG (Triglycerides) Normalized” value [3, 8] was 1.274, the “Avg TG (Triglycerides) Normalized” value [3, 9] was 1.202 and the “Avg TG (Triglycerides) Normalized” value [3, 10] was 1.999. The “Avg TG (Triglycerides) Normalized” value [3, 11] was 1.116, the “Avg TG (Triglycerides) Normalized” value [3, 12] was 1.141 and the “Avg TG (Triglycerides) Normalized” value [3, 13] was 1.234. For the same substance, the “Avg TG (Triglycerides) Normalized” value [3, 14] was 1.798, the “Avg TG (Triglycerides) Normalized” value [3, 15] was 1.028 and the “Avg TG (Triglycerides) Normalized” value [3, 16] was 1.027. For the same substance, the “Avg TG (Triglycerides) Normalized” value [3, 17] was 0.864, the “Avg TG (Triglycerides) Normalized” value [3, 18] was 1.855 and the “Avg TG (Triglycerides) Normalized” value [3, 19] was 0.860. The “Avg TG (Triglycerides) Normalized” value [3, 20] was 0.755, the “Avg TG (Triglycerides) Normalized” value [3, 21] was 0.720 and the “Avg TG (Triglycerides) Normalized” value [3, 22] was 1.254. The “Avg TG (Triglycerides) Normalized” value [3, 23] was 0.623, the “Avg TG (Triglycerides) Normalized” value [3, 24] was 0.556 and the “Avg TG (Triglycerides) Normalized” value [3, 25] was 0.447. For the same substance, the “Avg TG (Triglycerides) Normalized” value [3, 26] was 0.772, the “Avg TG (Triglycerides) Normalized” value [3, 27] was 0.923 and the “Avg TG (Triglycerides) Normalized” value [3, 28] was 0.892. The “Avg TG (Triglycerides) Normalized” value [3, 29] was 0.781 and the “Avg TG (Triglycerides) Normalized” value [3, 30] was 1.128.
“AD05308: RNAi agent duplex: antisense AM07003-AS, sense AM07002-SS (chain 1 mU*fG*mU*fUmGfAmAfUmUfAmAfUmGfUmCfCmAfUmGfG*mA; chain 2 {NAG37}*[invAb]*mUmCmCmAmUmGmGmAfCfAfUmUmAmAmUmUmCmAmAmCmA*[invAb])” was tested, and the “Avg LDL, normalized to pre-treatment and control” value (from here on “Avg LDL, normalized”) [4, 5] was 1.209, the “Avg LDL, normalized” value ([4]; Day 29, 0.5 mg/kg single SC injection on day 1, n=3) was 1.251 and the “Avg LDL, normalized” value [4, 6] was 1.375.
